The results in this text go back to patent publication US9073895B2 (Boehringer Ingelheim International GmbH, priority 2010, dated 2015).

Each structure is given as a SMILES string.

The target of this test is T1, recombinant human FLAP protein (Homo sapiens, UniProt P20292).
T1 construct: made in house; host or cells: Sf9 insect cells (membrane fraction, 100,000 x g pellet)
T1 sequence (P20292 1-161): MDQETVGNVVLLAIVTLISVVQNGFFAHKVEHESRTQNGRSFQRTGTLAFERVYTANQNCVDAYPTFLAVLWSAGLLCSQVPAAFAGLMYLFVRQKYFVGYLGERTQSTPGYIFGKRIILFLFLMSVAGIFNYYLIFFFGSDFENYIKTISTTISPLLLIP
As to the kind of experiment: FLAP binding assay (SPA, displacement of [125I]L-691,831). Particulars: membranes of sf9 cells expressing human FLAP, [125I]L-691,831 probe; read-out: hFLAP binding IC50. As for the experimental part:
Compounds are assessed for the ability to bind to FLAP in a binding assay that measures compound-specific displacement of an iodinated (^125I) FLAP inhibitor via a Scintillation Proximity Assay format (adapted from S. Charleson et al., Mol. Pharmacol., 1992, 41, 873-879).
Cell pellets produced from sf9 insect cells expressing recombinant human FLAP protein are resuspended in buffer A [15 mM Tris-HCl (pH 7.5), 2 mM MgCl2, 0.3 mM EDTA, 1 mM PMSF]. The cells are lysed with a Dounce homogenizer and the material is centrifuged at 10,000×g for 10 minutes. The supernatant is then collected and centrifuged at 100,000×g for 60 minutes. To prepare membrane protein for an assay, an aliquot of the 100,000×g pellet is resuspended in 1 ml of buffer A, Dounce homogenized, and finally subjected to polytron mixing (30 seconds). Membrane protein (25 μl, 5 μg) is mixed with WGA SPA beads (Amersham) and stirred for 1 h. To an assay plate (Perkin Elmer FlexiPlate) is added 25 μl of test compound prepared in Binding buffer [100 mM Tris (pH 7.5), 140 mM NaCl, 5% glycerol, 2 mM EDTA, 0.5 mM TCEP, 0.05% Tween 20], 25 μl of [^125I]L-691,831 (an iodinated analog of MK-591, Charleson et al. Mol. Pharmacol., 41, 873-879, 1992) and finally 50 μl of the bead/protein mixture. (final concentrations: beads, 200 μg/well; protein, 5μg/well; [^125I] probe, 0 08 nM/well(17 nCi/well). The plates are shaken for 2 h before reading on a Microbeta plate reader. Non-specific binding is determined by the addition of 10 μM cold L-691,831 compound.
On the technique in general: Loss of bound radioactivity is the signal in a displacement assay; it reports binding, not function.
One may read the IC50 as the midpoint of a concentration-inhibition curve. As for `Nc1ncc(-c2ccc(C3(C(=O)Nc4ccc5c(c4)CCC5)CCOCC3)cc2)cn1` [Example 6, 4-[4-(2-aminopyrimidin-5-yl)phenyl]-N-(2,3-dihydro-1H-inden-5-yl)tetrahydro-2H-pyran-4-carboxamide], the 50% inhibitory concentration (IC50) turned out to be 150 nM.
On to `Nc1ncc(-c2ccc(C3(C(=O)Nc4ccc5c(c4)OCO5)CCOCC3)cc2)cn1` [Example 9, 4-[4-(2-aminopyrimidin-5-yl)phenyl]-N-(1,3-benzodioxol-5-yl)tetrahydro-2H-pyran-4-carboxamide], for which the IC50 came out at 200 nM.
To `Cc1cc(C)nc(NC(=O)C2(c3ccc(-c4cnc(N)nc4)cc3)CCOCC2)c1` [Example 10, 4-[4-(2-aminopyrimidin-5-yl)phenyl]-N-(4,6-dimethylpyridin-2-yl)tetrahydro-2H-pyran-4-carboxamide] belongs 240 nM; to `CC(C)(C)c1ccc(NC(=O)C2(c3ccc(-c4cnc(N)nc4)cc3)CCOCC2)cc1` [Example 17, 4-[4-(2-aminopyrimidin-5-yl)phenyl]-N-(4-tert-butylphenyl)tetrahydro-2H-pyran-4-carboxamide], 330 nM.
For `CCOC(=O)c1sc(NC(=O)C2(c3ccc(-c4cnc(N)nc4)cc3)CCOCC2)nc1-c1ccccc1` [Example 19, ethyl 2-[({4-[4-(2-aminopyrimidin-5-yl)phenyl]tetrahydro-2H-pyran-4-yl}carbonyl)amino]-4-phenyl-1,3-thiazole-5-carboxylate] the value was 120 nM.
`Nc1ncc(-c2ccc(C3(C(=O)Nc4ccc(Cc5ccncc5)cc4)CCOCC3)cc2)cn1` [Example 28, 4-[4-(2-aminopyrimidin-5-yl)phenyl]-N-[4-(pyridin-4-ylmethyl)phenyl]tetrahydro-2H-pyran-4-carboxamide]: the concentration for half-maximal inhibition (IC50) was 121 nM.
To `CC(=O)N1CCc2ccc(NC(=O)C3(c4ccc(-c5cnc(N)nc5)cc4)CCOCC3)cc21` [Example 29, N-(1-acetyl-2,3-dihydro-1H-indol-6-yl)-4-[4-(2-aminopyrimidin-5-yl)phenyl]tetrahydro-2H-pyran-4-carboxamide] belongs 190 nM; to `Nc1ncc(-c2ccc(C3(C(=O)Nc4cc(C(F)(F)F)ccn4)CCOCC3)cc2)cn1` [Example 31, 4-[4-(2-aminopyrimidin-5-yl)phenyl]-N-[4-(trifluoromethyl)pyridin-2-yl]tetrahydro-2H-pyran-4-carboxamide], 140 nM; to `Nc1ncc(-c2ccc(C3(C(=O)Nc4cccc(S(=O)(=O)N5CCOCC5)c4)CCOCC3)cc2)cn1` [Example 35, 4-[4-(2-aminopyrimidin-5-yl)phenyl]-N-[3-(mopholin-4-ylsulfonyl)phenyl]tetrahydro-2H-pyran-4-carboxamide], 390 nM.
In the case of `CC(=O)N1CCc2cc(NC(=O)C3(c4ccc(-c5cnc(N)nc5)cc4)CCOCC3)ccc21` [Example 42, N-(1-acetyl-2,3-dihydro-1H-indol-5-yl)-4-[4-(2-aminopyrimidin-5-yl)phenyl]tetrahydro-2H-pyran-4-carboxamide], the half-maximal inhibitory concentration (IC50) was 310 nM.
To `Nc1ncc(-c2ccc(C3(C(=O)Nc4cccc(S(=O)(=O)C(F)(F)F)c4)CCOCC3)cc2)cn1` [Example 44, 4-[4-(2-aminopyrimidin-5-yl)phenyl]-N-{3-[(trifluoromethyl)sulfonyl]phenyl}tetrahydro-2H-pyran-4-carboxamide] belongs 270 nM; to `Nc1ncc(-c2ccc(C3(C(=O)Nc4cccc(CN5CCCC5)c4)CCOCC3)cc2)cn1` [Example 50, 4-[4-(2-aminopyrimidin-5-yl)phenyl]-N-[3-(pyrrolidin-1-ylmethyl)phenyl]tetrahydro-2H-pyran-4-carboxamide], 440 nM; to `CN1CCN(c2cccc(NC(=O)C3(c4ccc(-c5cnc(N)nc5)cc4)CCOCC3)c2)CC1` [Example 53, 4-[4-(2-aminopyrimidin-5-yl)phenyl]-N-[3-(4-methylpiperazin-1-yl)phenyl]tetrahydro-2H-pyran-4-carboxamide], 280 nM.
